Results as given in US10485747B2, “Hair-dye composition” (KAO CORPORATION, priority 2014, dated 2019).

Test: pKa, dissociation state and displayed color of the azo dyes
Format: physicochemical
Details: proton dissociated
Method: Thus, in the hair dye composition of the present invention having pH (25° C.) of 7.5 to 12, almost 80% or more of these azo dyes are present in an anionic state where a proton(s) is dissociated.
For `CSc1nsc(/N=N/c2ccc(O)c(Cl)c2)n1` [Example A-1], the “color displayed when a proton(s) dissociates” value (“color displayed” for short) was “red”. With `Cn1nccc1/N=N/c1ccc(O)c(Cl)c1` [Example A-3] the “color displayed” value was “yellow”. With `NS(=O)(=O)c1ccc2nsc(/N=N/c3ccc(O)c(Cl)c3)c2c1` [Example A-2] the “color displayed” value was “blue”.
